According to PMC12268802, “The herbicidal natural product phosphonothrixin is an inhibitor of the riboflavin biosynthetic enzyme L‐3,4‐dihydroxy‐2‐butanone‐4‐phosphate synthase” (Pest Management Science, 2025):

How the values were obtained:
[1] = system: Abutilon theophrasti (ABUTH); test: Herbicidal greenhouse screening, post-emergence; format: in vivo; details: visual, 3 weeks after spraying
Experimental: (§1) Seeds of mono‐ and dicotyledonous weed plants were sown in plastic pots of 7 cm diameter filled with a clayey silt soil substrate. The plants were maintained for the preparatory phase of germination and initial growth in the greenhouse under optimum growth conditions. Phosphonothrixin (1) was prepared for application as an emulsion concentrate and diluted together with 0.2% agrotin (a polyfunctional non‐ionic additive) in water corresponding to a spray volume of approximately 600 L ha^−1. At a growth stage of 2 to 4 true leaves the test plants were sprayed and then placed in the greenhouse for 3 weeks under optimum growth conditions. Subsequently, the effect of phosphonothrixin (1) was assessed visually relative to the untreated controls resulting in herbicidal effects (%) ranging from 0% (no effect = untreated control) to 100% (complete control = died‐off ).

[2] = system: Alopecurus myosuroides (ALOMY); test: Herbicidal greenhouse screening, post-emergence; format: in vivo; details: visual, 3 weeks after spraying
Experimental: as §1

[3] = system: Amaranthus retroflexus (AMARE); test: Herbicidal greenhouse screening, post-emergence; format: in vivo; details: visual, 3 weeks after spraying
Experimental: as §1

[4] = system: Cyperus esculentus (CYPES); test: Herbicidal greenhouse screening, post-emergence; format: in vivo; details: visual, 3 weeks after spraying
Experimental: as §1

[5] = system: Echinochloa crus‐galli (ECHCG); test: Herbicidal greenhouse screening, post-emergence; format: in vivo; details: visual, 3 weeks after spraying
Experimental: as §1

[6] = system: Pharbitis purpurea (PHBPU); test: Herbicidal greenhouse screening, post-emergence; format: in vivo; details: visual, 3 weeks after spraying
Experimental: as §1

Setaria viridis (SETVI) = test: Herbicidal greenhouse screening, post-emergence; format: in vivo; details: visual, 3 weeks after spraying
Experimental: as §1

Veronica persica (VERPE) = test: Herbicidal greenhouse screening, post-emergence; format: in vivo; details: visual, 3 weeks after spraying
Experimental: as §1

Viola tricolor (VIOTR) = test: Herbicidal greenhouse screening, post-emergence; format: in vivo; details: visual, 3 weeks after spraying
Experimental: as §1

Zea mays (ZEAMX) = test: Herbicidal greenhouse screening, post-emergence; format: in vivo; details: visual, 3 weeks after spraying
Experimental: as §1

AtDHBPS [7] = target: T1, AtDHBPS (Arabidopsis thaliana, UniProt P47924); test: Thermal stability shift analysis; format: binding; details: 6.5 μM AtDHBPS
T1 construct: made in house; host or cells: Escherichia coli BL21(DE3)
T1 sequence (P47924 with tags, fused parts or gaps): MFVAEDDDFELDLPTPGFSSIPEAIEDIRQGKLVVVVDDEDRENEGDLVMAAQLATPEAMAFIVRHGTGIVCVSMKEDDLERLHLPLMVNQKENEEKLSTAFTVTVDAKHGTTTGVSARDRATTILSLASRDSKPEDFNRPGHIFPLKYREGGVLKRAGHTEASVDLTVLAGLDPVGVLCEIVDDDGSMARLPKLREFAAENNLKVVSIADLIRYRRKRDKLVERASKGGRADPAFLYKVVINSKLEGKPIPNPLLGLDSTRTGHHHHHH
Experimental: AtDHBPS melting curves were determined in 96‐well microtiter plates in a Roche Light Cycler 480. The assay mixture contained 50 mM HEPES pH 7.5, 75 mM NaCl, 2.5 mM MgCl2, 7.5x SYPRO Orange and 6.5 μM AtDHBPS in a total volume of 20 μL. A linear temperature gradient from 25 to 85 °C with a ramping of 3.25 °C min^−1 was applied. Melting temperatures were determined from plots of the first derivative of the fluorescence intensity versus temperature.

AtDHBPS [8] = target: T1, AtDHBPS; test: DHBPS activity assay; format: biochemical
Experimental: (§2) DHBPS activity assays were out carried in 96‐well microtiter plates using a modification of the procedure previously described.[18] The reaction mixture contained 100 mM MES (2‐morpholinoethanesulfonic acid) buffer pH 6.5, 20 mM MgCl2, 20 mM D‐ribose‐5‐phosphate (Sigma‐Aldrich R7750), 0.02% Tween‐20, 0.2 mg BSA, 0.5 μg of spinach phosphoriboisomerase (Sigma‐Aldrich P9752) and DHBPS enzyme in a final volume of 110 μL. Assays were initiated by adding enzyme and terminated after 120 min incubation at rt by the addition of 90 μL of a solution of 3.5% α‐naphthol and 0.2% creatine in 2 N NaOH. After an additional 45 min incubation at rt the absorbance was determined at 540 nm. The pI50‐value for inhibition by phosphonothrixin (1) was determined with the XLFit Excel add‐in version 4.3.1 curve fitting program of ID Business Solutions Limited. […] Reaction velocities were fitted to the Michaelis–Menten equation with the XLFit curve fitting program.

ZtDHBPS = ZtDHBPS (Zymoseptoria tritici, UniProt F9X7Z9); test: DHBPS activity assay; format: biochemical
Experimental: as §2

Lemna gibba = Lemna gibba growth assay; format: in vivo; details: 100 μM phosphonothrixin; 7 days
Experimental: Growth experiments were performed in sterile 6‐well cell culture plates and were initiated by transferring four Lemna gibba fronds per well to 5 mL of K‐medium[22] pH 4.8 containing 1% (w/v) sucrose and a selected concentration of phosphonothrixin (1) and riboflavin determined from previous experiments. The cell culture plates were incubated for 7 days in a growth cabinet at 22 °C and a continuous photon flux density of 75 μE/m^2s.

[9] = system: mono‐ and dicotyledonous weed plants; test: Greenhouse test, pre-emergence; format: in vivo; details: highest application rate tested; data not shown
[10] = system: mono‐ and dicotyledonous weed plants; test: Greenhouse test, post-emergence, phenotype of affected plants; format: in vivo
Experimental: as §1

[11] = system: gramineous and broadleaf weeds; design: method as in PMID 7490218, PMID 7490219; details: cited from earlier work

ZtDHBPS, sequence (F9X7Z9 1-226): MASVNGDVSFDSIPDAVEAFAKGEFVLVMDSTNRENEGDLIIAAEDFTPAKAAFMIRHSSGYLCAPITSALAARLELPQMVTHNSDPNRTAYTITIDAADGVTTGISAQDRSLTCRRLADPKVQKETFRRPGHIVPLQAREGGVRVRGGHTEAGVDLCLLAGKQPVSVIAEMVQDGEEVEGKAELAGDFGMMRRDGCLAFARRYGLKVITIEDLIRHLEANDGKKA

With `CC(=O)C(O)(CO)CP(=O)(O)O` (centres unmarked) [phosphonothrixin] the “herbicidal effect rating, post-emergence” value ([1]; 80 g/ha) was 2 (‘2’ = 40–59% inhibition), the “herbicidal effect rating, post-emergence” value ([1]; 320 g/ha) was 3 (‘3’ = 60–79% inhibition) and the “herbicidal effect rating, post-emergence” value ([1]; 1280 g/ha) was 4 (‘4’ = 80–90% inhibition). For the same molecule, the “herbicidal effect rating, post-emergence” value ([1]; 5120 g/ha) was 4 (‘4’ = 80–90% inhibition), the “herbicidal effect rating, post-emergence” value ([2]; 320 g/ha) was 1 (‘1’ = 20–39% inhibition) and the “herbicidal effect rating, post-emergence” value ([2]; 1280 g/ha) was 3 (‘3’ = 60–79% inhibition). For the same molecule, the “herbicidal effect rating, post-emergence” value ([2]; 5120 g/ha) was 4 (‘4’ = 80–90% inhibition), the “herbicidal effect rating, post-emergence” value ([3]; 80 g/ha) was 2 (‘2’ = 40–59% inhibition) and the “herbicidal effect rating, post-emergence” value ([3]; 320 g/ha) was 3 (‘3’ = 60–79% inhibition). For the same molecule, the “herbicidal effect rating, post-emergence” value ([3]; 1280 g/ha) was 4 (‘4’ = 80–90% inhibition), the “herbicidal effect rating, post-emergence” value ([3]; 5120 g/ha) was 4 (‘4’ = 80–90% inhibition) and the “herbicidal effect rating, post-emergence” value ([4]; 320 g/ha) was 2 (‘2’ = 40–59% inhibition). For the same molecule, the “herbicidal effect rating, post-emergence” value ([4]; 1280 g/ha) was 3 (‘3’ = 60–79% inhibition), the “herbicidal effect rating, post-emergence” value ([4]; 5120 g/ha) was 4 (‘4’ = 80–90% inhibition) and the “herbicidal effect rating, post-emergence” value ([5]; 80 g/ha) was 1 (‘1’ = 20–39% inhibition). The “herbicidal effect rating, post-emergence” value ([5]; 320 g/ha) was 2 (‘2’ = 40–59% inhibition), the “herbicidal effect rating, post-emergence” value ([5]; 1280 g/ha) was 4 (‘4’ = 80–90% inhibition) and the “herbicidal effect rating, post-emergence” value ([5]; 5120 g/ha) was 4 (‘4’ = 80–90% inhibition). The “herbicidal effect rating, post-emergence” value ([6]; 80 g/ha) was 4 (‘4’ = 80–90% inhibition), the “herbicidal effect rating, post-emergence” value ([6]; 320 g/ha) was 4 (‘4’ = 80–90% inhibition) and the “herbicidal effect rating, post-emergence” value ([6]; 1280 g/ha) was 4 (‘4’ = 80–90% inhibition). For the same molecule, the “herbicidal effect rating, post-emergence” value ([6]; 5120 g/ha) was 4 (‘4’ = 80–90% inhibition), the “herbicidal effect rating, post-emergence” value (Setaria viridis (SETVI); 80 g/ha) was 4 (‘4’ = 80–90% inhibition) and the “herbicidal effect rating, post-emergence” value (Setaria viridis (SETVI); 320 g/ha) was 4 (‘4’ = 80–90% inhibition). The “herbicidal effect rating, post-emergence” value (Setaria viridis (SETVI); 1280 g/ha) was 4 (‘4’ = 80–90% inhibition), the “herbicidal effect rating, post-emergence” value (Setaria viridis (SETVI); 5120 g/ha) was 4 (‘4’ = 80–90% inhibition) and the “herbicidal effect rating, post-emergence” value (Veronica persica (VERPE); 80 g/ha) was 3 (‘3’ = 60–79% inhibition). For the same molecule, the “herbicidal effect rating, post-emergence” value (Veronica persica (VERPE); 320 g/ha) was 3 (‘3’ = 60–79% inhibition), the “herbicidal effect rating, post-emergence” value (Veronica persica (VERPE); 1280 g/ha) was 4 (‘4’ = 80–90% inhibition) and the “herbicidal effect rating, post-emergence” value (Veronica persica (VERPE); 5120 g/ha) was 4 (‘4’ = 80–90% inhibition). The “herbicidal effect rating, post-emergence” value (Viola tricolor (VIOTR); 80 g/ha) was 1 (‘1’ = 20–39% inhibition), the “herbicidal effect rating, post-emergence” value (Viola tricolor (VIOTR); 320 g/ha) was 3 (‘3’ = 60–79% inhibition) and the “herbicidal effect rating, post-emergence” value (Viola tricolor (VIOTR); 1280 g/ha) was 4 (‘4’ = 80–90% inhibition). For the same molecule, the “herbicidal effect rating, post-emergence” value (Viola tricolor (VIOTR); 5120 g/ha) was 4 (‘4’ = 80–90% inhibition), the “herbicidal effect rating, post-emergence” value (Zea mays (ZEAMX); 320 g/ha) was 2 (‘2’ = 40–59% inhibition) and the “herbicidal effect rating, post-emergence” value (Zea mays (ZEAMX); 1280 g/ha) was 3 (‘3’ = 60–79% inhibition). For the same molecule, the “herbicidal effect rating, post-emergence” value (Zea mays (ZEAMX); 5120 g/ha) was 4 (‘4’ = 80–90% inhibition), the ΔTm at 10 µM (AtDHBPS [7]; compound 10 μM, read-out: shift of the melting point (deltaTm) of AtDHBPS) was 4 °C and the “deltaTm(max)” value (AtDHBPS [7]; from plot of deltaTm vs. concentration) was 22.7 ± 0.6 °C. For the same molecule, the Kd (AtDHBPS [7]; from plot of deltaTm vs. concentration, read-out: Kd-value for binding to AtDHBPS) was 31.1 ± 2.8 µM, the IC50 (AtDHBPS [8]) was 58 ± 11 µM and the Ki (AtDHBPS [8]) was 16.6 ± 5 µM. For the same molecule, the “type of inhibition of AtDHBPS” value (AtDHBPS [8]; with respect to the substrate) was “competitive inhibitor”, the IC50 (ZtDHBPS) was 19 µM and the “bleaching of Lemna gibba fronds” value (Lemna gibba) was “strong bleaching of the fronds”. The “growth of Lemna gibba” value (Lemna gibba) was “significant growth inhibition”, the pre-emergence herbicidal activity [9] was “failed to show any pre‐emergence activity” and the “phenotype of affected plants” value [10] was “bleaching phenotype”. For the same molecule, the “effect after foliar application” value [11] was “chlorosis” and the effect on germination ([11]; gramineous and broadleaf weeds) was “significantly inhibited germination”.
